From patent EP3301096A1, “BIS-INDOLE DERIVATIVES FOR USE IN THE TREATMENT OF BACTERIAL INFECTIONS” (Heinrich Heine Universität Düsseldorf, priority 2016, dated 2018)

Key:
E. faecalis ATCC 51299 = experiment: MIC by broth microdilution method (CLSI); details: Enterococcus faecalis, ATCC51299, 24 h
Protocol: (§4) The compounds were tested for their antibacterial activities against the pathogenic nosocomial strains of Staphylococcus aureus, Enterococcus faecalis Enterococcus faecium, Acinetobacter baumannii. The minimal inhibitory concentration (MIC) was determined by the broth microdilution method according to the recommendations of the Clinical and Laboratory Standards Institute (CLSI) (CLSI M7-A9, 2012). For preparation of the inoculum the growth method was used. Bacterial cells were grown aerobically in Muller Hinton (MH) medium at 37°C and 180 rpm. A preculture was grown until log phase (OD600 nm ∼ 0.5) and then seeded at 5 x 10^4 bacteria/well in a total volume of 100 µL in 96 well round bottom microtiter plates and incubated with serially diluted test substances at a concentration range of 100-0.78 µM. The compounds were screened in two-fold serial dilution. Microplates were incubated aerobically at 37°C for 24 h. MICs were determined by identifying the minimum concentration of the compounds that led to complete inhibition of visual growth of the bacteria.

E. faecium ATCC 35667 = experiment: MIC by broth microdilution method (CLSI); details: Enterococcus faecium, ATCC35667, 24 h
Protocol: as §4

MRSA ATCC 700699 = experiment: MIC by broth microdilution method (CLSI); details: Staphylococcus aureus, 24 h
Protocol: as §4

[1] = tested on: VR E. faecium ATCC 700221; experiment: MIC by broth microdilution method (CLSI); details: Enterococcus faecium, ATCC700221, 24 h
Protocol: as §4

M. tuberculosis H37Rv = experiment: MIC determination, resazurin microplate assay; type: cell-based; details: Mycobacterium tuberculosis, 120 h, five days, range 100-0.78 µM
E. faecalis ATCC 29212 = experiment: MIC by broth microdilution method (CLSI); details: Enterococcus faecalis, ATCC29212, 24 h
Protocol: as §4

S. aureus ATCC 25923 = experiment: MIC by broth microdilution method (CLSI); details: Staphylococcus aureus, ATCC25923, 24 h
Protocol: as §4

[2] = tested on: nosocomial pathogens and Mycobacterium tuberculosis; experiment: MIC determination, statements across the tested strains; type: cell-based; details: for activity against the tested strains: tested concentration range 100-0.78 µM
[3] = tested on: methicillin-resistant Staphylococcus aureus; experiment: MIC quantified via the BacTiter-Glo assay; type: cell-based; details: methicillin-resistant strain; 24 h
Protocol: (§1) The MICs of compounds according to formulas (2), (3), (4), (7), (11), (12) and (18) were additionally quantified via the BacTiter-Glo™ assay (Promega, Madison, WI, USA). Briefly, after an incubation time of 24 h, each well was resuspended by pipetting, and 50 µL aliquots were transferred into an opaque-walled multiwell plate. Additionally, control wells containing medium without cells to determine background luminescence were prepared. 50 µL BacTiter-Glo™ reagent were added to each well. Contents were mixed and incubated for five minutes at room temperature. Luminescence was measured using a microplate reader. Growth was calculated relative to the background luminescence (0% growth) and a compound-free DMSO control (100% growth).

[4] = tested on: methicillin-sensitive Staphylococcus aureus; experiment: MIC quantified via the BacTiter-Glo assay; type: cell-based; details: methicillin-sensitive strain; 24 h
Protocol: as §1

[5] = tested on: Staphylococcus aureus MRSA strain ATCC 700699; experiment: Time-kill curves in vitro (killing kinetics); type: cell-based
[6] = tested on: Methicillin resistant S. aureus (MRSA; ATCC 700699); experiment: Resistance development during time-kill kinetics; type: cell-based, Staphylococcus aureus; details: after 6 and 24 h of incubation, plated on agar with 5x MIC
Protocol: Additionally, the resistance rate of the cultures was determined after 6 and 24 h of incubation. For this, 20 µL of the cultures were plated on 1 mL MH agar containing the five-fold MIC of the compounds (for the compound according to formula (2) and (4): 2 µM, for the compound according to formula (3): 8 µM). After an incubation time of 24 h at 37°C, the colonies were counted. The resistance rate was determined as quotient of the number of resistant colonies on compound containing agar and the total amount of viable bacteria at the corresponding time points.
Two independent cultures C1 and C2 were tested for each attempt. Compounds were tested at 5x MIC resulting in 0.02-0.08% DMSO final concentration. In an independent experiment, medium was replaced and compounds were freshly added after 6 h, denoted "freshly added" in the Figure. 20 µL of different dilution of the cultures after either 6 or 24 h of incubation were plated out on MH agar containing either no antibiotics, which is denoted (*) or the compounds of formulas (2) and (3) at 5x MIC, respectively.

[7] = tested on: human fetal lung fibroblast cell line MRC-5; experiment: Cytotoxicity, resazurin assay; type: cell-based; details: MRC-5 cells, 48 h
Protocol: (§2) The cytotoxicity of the compounds according to formulas (2), (3) and (4) and according to formulas (7), (11), (12) and (18) was determined in vitro using the human monocyte cell line THP-1 (Deutsche Sammlung von Mikroorganismen und Zellkulturen GmbH) and the human fetal lung fibroblast cell line MRC-5 (American Type Culture Collection).
(§3) THP-1 cells were cultured in RPMI 1640 medium containing 10% (v/v) fetal bovine serum (FBS), while MRC-5 cells were incubated in Dulbecco's Modified Eagles Medium (DMEM) containing 10% (v/v) FBS both at 37°C in a humidified atmosphere of 5% CO2. […] Cells treated with DMSO in a final concentration of 1% (v/v) served as DMSO toxicity controls. After an incubation time of 48 h, 10 µL resazurin solution (100 µg/mL) were added per well and incubated for further 3 h at 37°C in a humidified atmosphere of 5% CO2. Fluorescence was quantified using a microplate reader (excitation 540 nm, emission 590 nm). Growth was calculated relative to non-inoculated (i.e. cell-free) (0% growth) and untreated (100% growth) controls in triplicate experiments, respectively. For determination of the therapeutic index of the tested substances, the selectivity index (SI) was determined by the quotient of cytotoxic concentration and MIC. Compounds with SI ≥ 10 were characterized in further experiments.

[8] = tested on: human monocyte cell line THP-1; experiment: Cytotoxicity, resazurin assay; type: cell-based; details: THP-1 cells, 48 h
Protocol: as §2, §3

| SMILES | MIC (E. faecalis ATCC 51299) [µM] | MIC (E. faecium ATCC 35667) [µM] | MIC (MRSA ATCC 700699) [µM] | MIC [1] [µM] | MIC (M. tuberculosis H37Rv) [µM] | MIC (E. faecalis ATCC 29212) [µM] | MIC (S. aureus ATCC 25923) [µM] | activity against the tested strains [2] | inhibition of Staphylococcus aureus (BacTiter-Glo) [3] | inhibition of Staphylococcus aureus (BacTiter-Glo) [4] | bacteria amount ([5]; after 6 h at five-fold MIC, inoculum 10^6 CFU/mL) | killing effect ([5]; five-fold MIC) | level of resistance in treated cultures [6] | cytotoxic (inhibitory) concentration [7] [µM] | cytotoxic (inhibitory) concentration [8] [µM] | effect against M. tuberculosis, S. aureus and E.faecium [2] |
| --- | --- | --- | --- | --- | --- | --- | --- | --- | --- | --- | --- | --- | --- | --- | --- | --- |
| c1ccc2c(-c3ccc(-c4c[nH]c5ccccc45)nn3)c[nH]c2c1 [formula (17), 3,6-Di(1H-indole-3-yl)pyridazine] | 100 | > 100 | > 100 | > 100 | > 100 | 100 | > 100 |  |  |  |  |  |  |  |  |  |
| c1ccc2c(-c3cc(-c4c[nH]c5ccccc45)ncn3)c[nH]c2c1 [formula (15), 4,6-di(1H-indole-3-yl)pyrimidine] | > 100 | > 100 | > 100 | > 100 | > 100 | > 100 | > 100 |  |  |  |  |  |  |  |  |  |
| Fc1ccc2[nH]cc(-c3cnc(-c4c[nH]c5ccc(F)cc45)cn3)c2c1 [formula (5), 2,5-bis(5-fluoro-1H-indole-3-yl)pyrazine] | > 100 | > 100 | > 100 | > 100 | > 100 | > 100 | > 100 | no activity |  |  |  |  |  |  |  |  |
| COc1ccc2[nH]cc(-c3cnc(-c4c[nH]c5ccc(OC)cc45)nc3)c2c1 [formula (14), 3,3'-(pyrimidine-2,5-diyl)bis(5-methoxy-1H-indole)] | 100 | 100 | 50 | 50 | 50 | 50 | > 100 |  |  |  |  |  |  |  |  |  |
| c1ccc2c(-c3csc(-c4c[nH]c5ccccc45)n3)c[nH]c2c1 [formula (18), 2,4-di(1H-indole-3-yl)thiazole] | > 100 | 6.25 | 3.12 | 6.25 | 100 | > 100 | 6.25 |  | effectively inhibited | effectively inhibited |  |  |  |  |  |  |
| c1cc(-c2c[nH]c3ccccc23)nc(-c2c[nH]c3ccccc23)c1 [formula (16), 2,6-di(1H-indole-3-yl)pyridine] | 100 | > 100 | > 100 | > 100 | > 100 | 100 | > 100 |  |  |  |  |  |  |  |  |  |
| Brc1ccc2[nH]cc(-c3cnc(-c4c[nH]c5ccc(Br)cc45)cn3)c2c1 [formula (3), 2,5-bis(5-bromo-1H-indole-3-yl)pyrazine] | > 100 | > 100 | 1.56 | > 100 | > 100 | > 100 | 1.56 |  | effectively inhibited | effectively inhibited | 10^2 CFU/mL | strong bactericidal killing effect | no significant level of resistance was detectable | 12.5 | 12.5 |  |
| c1ccc2c(-c3cnc(-c4c[nH]c5ccccc45)nc3)c[nH]c2c1 [formula (12), 3,3'-(pyrimidine-2,5-diyl)bis(1H-indole)] | 100 | 100 | 12.5 | 100 | 50 | 50 | 100 |  |  |  |  |  |  |  |  |  |
| Brc1cc2[nH]cc(-c3cnc(-c4c[nH]c5cc(Br)c(Br)cc45)cn3)c2cc1Br [formula (7), 2,5-bis(5,6-dibromo-1H-indole-3-yl)pyrazine] | > 100 | 50 | 25 | 50 | > 100 | 100 | 100 |  |  |  |  |  |  |  |  |  |
| Fc1ccc2[nH]cc(-c3cnc(-c4c[nH]c5ccc(F)cc45)nc3)c2c1 [formula (11), 3,3'-(pyrimidine-2,5-diyl)bis(5-fluoro-1H-indole)] | 100 | 50 | 12.5 | 50 | > 100 | 100 | 100 |  |  |  |  |  |  |  |  |  |
| COc1ccc2[nH]cc(-c3cnc(-c4c[nH]c5ccc(OC)cc45)cn3)c2c1 [formula (8), 2,5-bis(5-methoxy-1H-indole-3-yl)pyrazine] | > 100 | > 100 | > 100 | > 100 | > 100 | > 100 | > 100 |  |  |  |  |  |  |  |  | did not show any effect |
| COc1ccc2c(-c3cnc(-c4c[nH]c5cc(OC)ccc45)cn3)c[nH]c2c1 [formula (9), 2,5-bis(6-methoxy-1H-indole-3-yl)pyrazine] | > 100 | > 100 | > 100 | > 100 | > 100 | > 100 | > 100 |  |  |  |  |  |  |  |  | did not show any effect |
| Brc1ccc2c(-c3cnc(-c4c[nH]c5cc(Br)ccc45)cn3)c[nH]c2c1 [formula (6), 2,5-bis(6-bromo-1H-indole-3-yl)pyrazine] | > 100 | > 100 | > 100 | > 100 | > 100 | > 100 | > 100 | no activity could be observed |  |  |  |  |  |  |  |  |
| c1ccc2c(-c3cnc(-c4c[nH]c5ccccc45)cn3)c[nH]c2c1 [formula (10), 2,5-bis(1H-indole-3-yl)pyrazine] | 25 | > 100 | > 100 | > 100 | > 100 | 12.5 | > 100 |  |  |  |  |  |  |  |  | did not show any effect |
| c1cnc2[nH]cc(-c3cnc(-c4c[nH]c5ncccc45)nc3)c2c1 [formula (13), 3,3'-(pyrimidine-2,5-diyl)bis(1H-pyrrolo[2,3-b]pyridine)] | > 100 | > 100 | > 100 | > 100 | > 100 | 100 | > 100 |  |  |  |  |  |  |  |  |  |
